Assay results published in ChEMBL document CHEMBL4765484, “Development of Orally Efficacious Allosteric Inhibitors of TNFα via Fragment-Based Drug Design” (J Med Chem, 2021).
In brackets after ≈: the same amount, converted by molar mass. Activity calls are given as the source filed them. The calls are words filed in the database; no cut-off is given here.

Experiments:
Tumor necrosis factor [1] = target: T1, Tumor necrosis factor (Homo sapiens, UniProt P01375)
Description: Binding affinity to biotinylated human TNFalpha trimer (77 to 233 residues) expressed in Escherichia coli BL21(DE3) by SPR analysis

Tumor necrosis factor [2] = target: T1, Tumor necrosis factor; remark: listed apart in the source
Description: Inhibition of probe-5 binding to human TNFalpha (77 to 233 residues) at 1 nM by fluorescence polarization assay

[3] = Unbound AUC in CD1 mouse at 1 mg/kg, po after 24 hrs by HPLC-MS/MS analysis; assay type: ADME, organism-based; conditions: in vivo
[4] = Oral bioavailability in CD1 mouse at 1 mg/kg after 24 hrs by HPLC-MS/MS analysis; assay type: ADME, organism-based; conditions: in vivo
[5] = Half life in CD1 mouse at 1 mg/kg, iv after 24 hrs by HPLC-MS/MS analysis; assay type: ADME, organism-based; conditions: in vivo
[6] = Cmax in CD1 mouse at 1 mg/kg, po after 24 hrs by HPLC-MS/MS analysis; assay type: ADME, organism-based; set-up: route oral, dose 1 mg/kg, time 24 hrs; conditions: in vivo
[7] = Solubility in phosphate buffer at pH 7.4; assay type: physicochemical
[8] = Half life in CD1 mouse at 1 mg/kg, po after 24 hrs by HPLC-MS/MS analysis; assay type: ADME, organism-based; conditions: in vivo
[9] = Fraction unbound in plasma (unknown origin); assay type: ADME, cell-free
[10] = Blood clearance in CD1 mouse at 1 mg/kg, iv after 24 hrs by HPLC-MS/MS analysis; assay type: ADME, organism-based
[11] = Volume of distribution at steady state in CD1 mouse at 1 mg/kg, iv after 24 hrs by HPLC-MS/MS analysis; assay type: ADME, organism-based; conditions: in vivo, read-out: Vdss
[12] = Unbound clearance in CD1 mouse at 1 mg/kg, iv after 24 hrs by HPLC-MS/MS analysis; assay type: ADME, organism-based; conditions: in vivo
[13] = AUC in CD1 mouse at 1 mg/kg, po after 24 hrs by HPLC-MS/MS analysis; assay type: ADME, organism-based; set-up: route oral, time 24 hrs, dose 1 mg/kg; conditions: in vivo
Tumor necrosis factor [14] = target: T1, Tumor necrosis factor; remark: listed apart in the source
Description: Binding affinity to biotinylated human TNFalpha trimer (77 to 233 residues) expressed in Escherichia coli BL21(DE3) assessed as binding half life by SPR analysis

[15] = Tmax in CD1 mouse at 1 mg/kg, po after 24 hrs by HPLC-MS/MS analysis; assay type: ADME, organism-based; conditions: in vivo
[16] = AUC in CD1 mouse at 1 mg/kg, iv after 24 hrs by HPLC-MS/MS analysis; assay type: ADME, organism-based; set-up: route intravenous, dose 1 mg/kg, time 24 hrs; conditions: in vivo
Tumor necrosis factor [17] = target: T1, Tumor necrosis factor; remark: listed apart in the source
Description: Induction of stabilization of biotinylated human TNFalpha trimer (77 to 233 residues) expressed in Escherichia coli BL21(DE3) assessed as change in melting temperature

[18] = Drug uptake in DBA/J mouse model of CFA and glucose-6-phosphate isomerase-induced arthritis model at 10 to 100 mg/kg, po BID beginning 1 hr prior to GPI immunization and measured up to day 17 after GPI immunization by HPLC-MS/MS analysis; assay type: ADME, organism-based; conditions: in vivo, 408 h, dose 10-100 mg/kg, time 17 day
[19] = AUC (0 to 12 hrs) in DBA/J mouse model of CFA and glucose-6-phosphate isomerase-induced arthritis model at 30 mg/kg, po BID beginning 1 hr prior to GPI immunization and measured up to day 17 after GPI immunization by HPLC-MS/MS analysis; assay type: ADME, organism-based; set-up: route oral, time 17 day, dose 30 mg/kg; conditions: in vivo
[20] = AUC (0 to 12 hrs) in DBA/J mouse model of CFA and glucose-6-phosphate isomerase-induced arthritis model at 100 mg/kg, po BID beginning 1 hr prior to GPI immunization and measured up to day 17 after GPI immunization by HPLC-MS/MS analysis; assay type: ADME, organism-based; set-up: route oral, dose 100 mg/kg, time 17 day; conditions: in vivo
Mus musculus = experiment: Antiarthritic activity in DBA/J mouse model of CFA and glucose-6-phosphate isomerase-induced arthritis model assessed as inhibition of paw swelling at 30 to 100 mg/kg, po BID beginning 1 hr prior to GPI immunization and measured on days 13, 15, and 17 after GPI immunization; assay type: functional, organism-based; conditions: dose 30-100 mg/kg, time 13-17 day
[21] = AUC (0 to 12 hrs) in DBA/J mouse model of CFA and glucose-6-phosphate isomerase-induced arthritis model at 10 mg/kg, po BID beginning 1 hr prior to GPI immunization and measured up to day 17 after GPI immunization by HPLC-MS/MS analysis; assay type: ADME, organism-based; set-up: route oral, time 17 day, dose 10 mg/kg; conditions: in vivo
[22] = Selectivity index, ratio of Cmax in DBA/J mouse model of CFA and glucose-6-phosphate isomerase-induced arthritis model at 30 mg/kg, po BID beginning 1 hr prior to GPI immunization and measured up to day 17 after GPI immunization by HPLC-MS/MS analysis to EC50 for inhibition of TNFalpha in mouse L929 cells exposed to compound incubated for 1 hr with mouse TNFalpha by luminescence based assay; conditions: time 17 day
[23] = Cmax in DBA/J mouse model of CFA and glucose-6-phosphate isomerase-induced arthritis model at 30 mg/kg, po BID beginning 1 hr prior to GPI immunization and measured up to day 17 after GPI immunization by HPLC-MS/MS analysis; assay type: ADME, organism-based; set-up: route oral, time 17 day, dose 30 mg/kg; conditions: in vivo
[24] = Cmax in DBA/J mouse model of CFA and glucose-6-phosphate isomerase-induced arthritis model at 10 mg/kg, po BID beginning 1 hr prior to GPI immunization and measured up to day 17 after GPI immunization by HPLC-MS/MS analysis; assay type: ADME, organism-based; set-up: route oral, time 17 day, dose 10 mg/kg; conditions: in vivo
[25] = Selectivity index, ratio of Cmax in DBA/J mouse model of CFA and glucose-6-phosphate isomerase-induced arthritis model at 10 mg/kg, po BID beginning 1 hr prior to GPI immunization and measured up to day 17 after GPI immunization by HPLC-MS/MS analysis to EC50 for inhibition of TNFalpha in mouse L929 cells exposed to compound incubated for 1 hr with mouse TNFalpha by luminescence based assay; conditions: time 17 day
[26] = Cmax in DBA/J mouse model of CFA and glucose-6-phosphate isomerase-induced arthritis model at 100 mg/kg, po BID beginning 1 hr prior to GPI immunization and measured up to day 17 after GPI immunization by HPLC-MS/MS analysis; assay type: ADME, organism-based; set-up: route oral, time 17 day, dose 100 mg/kg; conditions: in vivo
[27] = Selectivity index, ratio of Cmax in DBA/J mouse model of CFA and glucose-6-phosphate isomerase-induced arthritis model at 100 mg/kg, po BID beginning 1 hr prior to GPI immunization and measured up to day 17 after GPI immunization by HPLC-MS/MS analysis to EC50 for inhibition of TNFalpha in mouse L929 cells exposed to compound incubated for 1 hr with mouse TNFalpha by luminescence based assay
[28] = Intrinsic clearance in mouse liver microsomes; assay type: ADME, Microsome; conditions: read-out: CLH (converted)
[29] = Intrinsic clearance in human liver microsomes; assay type: ADME, Microsome; conditions: read-out: CLH (converted)
Tumor necrosis factor [30] = target: T1, Tumor necrosis factor; conditions: dose 1.0 nM, TDE = time-dependent effect

T1 sequence (P01375 whole entry): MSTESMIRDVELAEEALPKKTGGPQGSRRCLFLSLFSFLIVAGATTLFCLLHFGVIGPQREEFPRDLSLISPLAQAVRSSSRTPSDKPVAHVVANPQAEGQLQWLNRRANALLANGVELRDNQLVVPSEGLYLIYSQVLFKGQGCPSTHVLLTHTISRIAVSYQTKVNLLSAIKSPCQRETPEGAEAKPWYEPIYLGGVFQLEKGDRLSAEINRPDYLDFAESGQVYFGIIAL

## c1ccc(-c2cccc3ccncc23)cc1
Tumor necrosis factor [1]
  Kd: 60000 nM
Tumor necrosis factor [2]
  IC50: 25300 nM

## C[C@@H]1CN(c2ncc(-c3ccc4c(c3)N(Cc3cccnc3C#N)C(C)(C)C4=O)cn2)CCN1C(=O)CO
[3]
  fAUC: 9.6 ng·h/mL
[4]
  bioavailability: 50.8%
[5]
  half-life: 1.4 h
[6]
  Cmax: 16.7 ng/mL
[7]
  solubility: 48.4 µM (≈ 24.8 µg/mL)
[8]
  half-life: 2 h
Tumor necrosis factor [1]
  Kd: 7.3 nM
[9]
  fraction unbound: 0.137
[10]
  clearance: 146 mL/min/kg
[11]
  Vd: 17.3 L/kg
[12]
  CL free: 955 mL/min/kg
[13]
  AUC at 24 h: 62.7 ng·h/mL
Tumor necrosis factor [14]
  T1/2: 62.3 h
Tumor necrosis factor [2]
  IC50: 163 nM
[15]
  Tmax: 1 h
[16]
  AUC at 24 h: 124 ng·h/mL

## Cc1nc2ccccc2n1Cc1ccccc1
Tumor necrosis factor [1]
  Kd: 325000 nM

## c1ccc(Cn2cnc3ccccc32)cc1
Tumor necrosis factor [1]
  Kd: 300000 nM
Tumor necrosis factor [2]
  IC50: 204000 nM

## c1ccc(-c2cccc3ccncc23)c(OCCc2ccc(-c3cccc4ccncc34)cc2)c1
Tumor necrosis factor [17]
  ΔTm: 7 °C
Tumor necrosis factor [1]
  Kd: 74 nM
Tumor necrosis factor [2]
  IC50: 1350 nM

## CC1(C)C(=O)c2ccc(-c3cnc(N4CCN5C(=O)NC[C@@H]5C4)nc3)cc2N1Cc1cccnc1C#N
[3]
  fAUC: 42.4 ng·h/mL
[4]
  bioavailability: 50.4%
[5]
  half-life: 1.1 h
[18]
  Drug uptake: Dose-dependent effect
[6]
  Cmax: 81.7 ng/mL
[19]
  AUC at 408 h: 10200 ng·h/mL
[20]
  AUC at 408 h: 46300 ng·h/mL
[8]
  half-life: 1.6 h
Mus musculus
  Activity: Active
Tumor necrosis factor [1]
  Kd: 6.8 nM
[21]
  AUC at 408 h: 3830 ng·h/mL
[10]
  clearance: 32 mL/min/kg
[22]
  Ratio: 8.3
[11]
  Vd: 2.12 L/kg
[12]
  CL free: 198 mL/min/kg
[13]
  AUC at 24 h: 263 ng·h/mL
Tumor necrosis factor [14]
  T1/2: 0.9 h
[23]
  Cmax: 2980 ng/mL
[24]
  Cmax: 767 ng/mL
Tumor necrosis factor [2]
  IC50: 71 nM
[25]
  Ratio: 2.1
[15]
  Tmax: 1 h
[26]
  Cmax: 6190 ng/mL
[16]
  AUC at 24 h: 523 ng·h/mL
[27]
  Ratio: 17

## C[C@@H]1CN(c2ncc(-c3ccc4c(c3)N(Cc3ccccc3OC(F)F)C(C)(C)C4=O)cn2)CCN1C(=O)CO
[3]
  fAUC: 6.86 ng·h/mL
[4]
  bioavailability: 75.4%
[28]
  CLint scaled: 1680 mL/min/kg
[5]
  half-life: 4.4 h
[6]
  Cmax: 200 ng/mL
[7]
  solubility: 1.2 µM (≈ 0.662 µg/mL)
[8]
  half-life: 4.7 h
Tumor necrosis factor [1]
  Kd: 1.3 nM
[9]
  fraction unbound: 0.00293
[10]
  clearance: 6.15 mL/min/kg
[11]
  Vd: 2.12 L/kg
[12]
  CL free: 2100 mL/min/kg
[13]
  AUC at 24 h: 2340 ng·h/mL
Tumor necrosis factor [14]
  T1/2: 42.8 h
Tumor necrosis factor [2]
  IC50: 189 nM
[15]
  Tmax: 1.8 h
[16]
  AUC at 24 h: 3110 ng·h/mL
[29]
  CLint scaled: 2280 mL/min/kg

## CN1CCN(Cc2ccc(-c3c[nH]c4ccncc34)c(OCCc3ccc(-c4cccc5ccncc45)cc3)c2)CC1
Tumor necrosis factor [17]
  ΔTm: > 15 °C
Tumor necrosis factor [1]
  Kd: 2.4 nM
Tumor necrosis factor [2]
  IC50: 29 nM

## Cc1ccc(Cn2cnc3ccccc32)c(C)c1
Tumor necrosis factor [1]
  Kd: 106000 nM

## N#CCc1ccc(-c2cccc3ccncc23)cc1
Tumor necrosis factor [17]
  ΔTm: 4 °C
Tumor necrosis factor [1]
  Kd: 2700 nM
Tumor necrosis factor [2]
  IC50: 7960 nM

## O=C(NCCOCCOCCOCc1ccc(-c2cccc3ccncc23)c(OCCc2ccc(-c3cccc4ccncc34)cc2)c1)c1ccc2c(c1)C(=O)OC21c2cc(F)c(O)cc2Oc2cc(O)c(F)cc21
Tumor necrosis factor [30]
  Activity: Tde
